Experimental data from US12097173B2, “Volatile organic compound formulations having antimicrobial activity” (priority 2019, dated 2024).

Assays:
Format in all cases: cell-based
[1] = tested on: Escherichia coli; assay: plate bioassay of volatile test mixtures, relative growth of streak
Method: (§1) FIG. 1 illustrates a plate bioassay to determine the bioactivity of various esters when combined with a 1:1 mix of the two organic acids as per Table 2. The test organisms were as follows—Cercospora (dark-lower left bottom) then clockwise—Phytophthora, Verticillium, Sclerotinia, Pythium. Fusarium, Trichoderma, Rhizoctonia, and Aspergillus. The streaks were Saccharomyces (far right bottom) then Candida, E coli and Bacillus (left bottom). A=control plate, and B=plate with System 1 after incubation for 30 hr.
(§2) FIG. 9 depicts the biological activities of various test mixtures against a panel of test microbes. A small plug of each organism was placed in the periphery of the PDA plate. In the center well was placed the test solution in the plastic cup holder. A control plate (A) was also set up. After 30 hr the growth of the test organisms was compared to that of the control and the % inhibition was calculated. The (B) plate contained the test mixture. Measurements were made 30 hr after plate set up.
(§3) FIG. 1. Indicates how the assays were done to yield the data sets in Table 1. The various esters were combined with a 1:1 mixture of propanoic acid and isobutryic acid and these were added 7:2 V/V with the ester to be tested.
(§4) Shown in Table 1, are the inhibition and killing effects of propanoic acid, and isobutryic acid together and alone and with various esters. The tests were conducted over the course of 30 hr at 22° C. Measurements were made on appropriate controls and thus the percentage of inhibition calculations could be made on treatments vs the growth on a control organism (non-treated). The bacteria and yeast like organisms were evaluated on the basis of relative growth rates after 30 hr. Those highlighted areas on the table show those compounds (esters) having the most compatibility with propanoic and isobutryic acid 1:1 v/v mixtures with the appropriate esters at a 7:2 ratio—Systems 1 and 2 above. It is from this test that Systems 1 and 2 were discovered. The acids were added at […] individually and combination of the esters with the acids were added at the […] in the plate assay.
(§5) Tests were conducted as similarly described for Systems 1 and 2 above (FIG. 9) to ascertain the biological activities of various test mixtures against a panel of test microbes. A small plug of each organism was placed in the periphery of the PDA plate. In the center well was placed the test solution in the plastic cup holder. A control plate (A) was also set up. After 30 hr the growth of the test organisms was compared to that of the control and the % inhibition was calculated. The (B) plate contained the test mixture. Measurements were made 30 hr after plate set up.

[2] = tested on: Candida albicans; assay: as above
Method: as §1, §2, §3, §4, §5

[3] = tested on: Saccharomyces cerevicae; assay: as above; conditions: for growth of Saccharomyces cerevicae: relative growth after 30 hr at 22° C., esters with 1:1 v/v propanoic acid and isobutryic acid (7:2 v/v), 9 ul, acids 7 ul; for growth of Saccharomyces cerevisiae: Table 4, 30 hr at room temperature
Method: as §1, §2, §3, §4, §5

[4] = tested on: Bacillus subtilus; assay: as above
Method: as §1, §2, §3, §4, §5

[5] = tested on: Cercospora beticola; assay: plate bioassay of volatile test mixtures, growth inhibition; conditions: for inhibition of Cercospora beticola: 30 hr at 22° C., esters with 1:1 v/v propanoic acid and isobutryic acid (acids to ester 7:2 v/v), 9 ul, acids 7 ul; for percent inhibition of the growth of Cercospora beticola: Table 4, 30 hr at room temperature, compared to control
Method: as §1, §2, §3, §4, §5

[6] = tested on: Verticillium dahliae; assay: as above; conditions: for inhibition of Verticillium dahliae: 30 hr at 22° C., esters with 1:1 v/v propanoic acid and isobutryic acid (acids to ester 7:2 v/v), 9 ul, acids 7 ul; for percent inhibition of the growth of Verticillium dahliae: Table 4, 30 hr at room temperature, compared to control
Method: as §1, §2, §3, §4, §5

[7] = tested on: Pythium ultimum; assay: as above; conditions: for inhibition of Pythium ultimum: 30 hr at 22° C., esters with 1:1 v/v propanoic acid and isobutryic acid (acids to ester 7:2 v/v), 9 ul, acids 7 ul; for percent inhibition of the growth of Pythium ultimum: Table 4, 30 hr at room temperature, compared to control
Method: as §1, §2, §3, §4, §5

[8] = tested on: Trichoderma viridae; assay: as above; conditions: for inhibition of Trichoderma viridae: 30 hr at 22° C., esters with 1:1 v/v propanoic acid and isobutryic acid (acids to ester 7:2 v/v), 9 ul, acids 7 ul; for percent inhibition of the growth of Trichoderma viridae: Table 4, 30 hr at room temperature, compared to control
Method: as §1, §2, §3, §4, §5

[9] = tested on: Phytophthora cinnamomi; assay: as above; conditions: for inhibition of Phytophthora cinnamomi: 30 hr at 22° C., esters with 1:1 v/v propanoic acid and isobutryic acid (acids to ester 7:2 v/v), 9 ul, acids 7 ul; for percent inhibition of the growth of Phytophthora cinnamomi: Table 4, 30 hr at room temperature, compared to control
Method: as §1, §2, §3, §4, §5

[10] = tested on: Rhizoctonia solani; assay: as above; conditions: for inhibition of Rhizoctonia solani: 30 hr at 22° C., esters with 1:1 v/v propanoic acid and isobutryic acid (acids to ester 7:2 v/v), 9 ul, acids 7 ul; for percent inhibition of the growth of Rhizoctonia solani: Table 4, 30 hr at room temperature, compared to control
Method: as §1, §2, §3, §4, §5

[11] = tested on: Sclerotinia sclerotiorum; assay: as above; conditions: for inhibition of Sclerotinia sclerotiorum: 30 hr at 22° C., esters with 1:1 v/v propanoic acid and isobutryic acid (acids to ester 7:2 v/v), 9 ul, acids 7 ul; for percent inhibition of the growth of Sclerotinia sclerotiorum: Table 4, 30 hr at room temperature, compared to control
Method: as §1, §2, §3
The tests were conducted over the course of 30 hr at 22° C. Measurements were made on appropriate controls and thus the percentage of inhibition calculations could be made on treatments vs the growth on a control organism (non-treated). The bacteria and yeast like organisms were evaluated on the basis of relative growth rates after 30 hr. […] The acids were added at […] individually and combination of the esters with the acids were added at the […] in the plate assay.
as §5

[12] = tested on: Fusarium subglutinans; assay: as above; conditions: 30 hr at 22° C.; esters with 1:1 v/v propanoic acid and isobutryic acid (acids to ester 7:2 v/v), 9 ul; acids 7 ul
Method: as §1, §3, §4

[13] = tested on: Aspergillus fumigatus; assay: as above; conditions: 30 hr at 22° C.; esters with 1:1 v/v propanoic acid and isobutryic acid (acids to ester 7:2 v/v), 9 ul; acids 7 ul
Method: as §1, §3, §4

[14] = tested on: Fusarium solani; assay: as above; conditions: Table 4; 30 hr at room temperature, compared to control
Method: as §2, §5
(§6) All testing was done according to the methods in Table 4

[15] = tested on: Aspergillus flavus; assay: as above; conditions: Table 4; 30 hr at room temperature, compared to control
Method: as §2, §5, §6

[16] = relative growth after 30 hr at 22° C., esters with 1:1 v/v propanoic acid and isobutryic acid (7:2 v/v), 9 ul, acids 7 ul
[17] = Table 4, 30 hr at room temperature

| Compound | growth of Escherichia coli [1, 16] | growth of Candida albicans [2, 16] | growth of Saccharomyces cerevicae [3] | growth of Bacillus subtilus [4, 16] | inhibition of Cercospora beticola [5] [%] | inhibition of Verticillium dahliae [6] [%] | inhibition of Pythium ultimum [7] [%] | inhibition of Trichoderma viridae [8] [%] | inhibition of Phytophthora cinnamomi [9] [%] | inhibition of Rhizoctonia solani [10] [%] | inhibition of Sclerotinia sclerotiorum [11] [%] | inhibition of Fusarium subglutinans [12] [%] | inhibition of Aspergillus fumigatus [13] [%] | growth of Escherichia coli [1, 17] | growth of Candida albicans [2, 17] | growth of Saccharomyces cerevisiae [3] | growth of Bacillus subtilus [4, 17] | percent inhibition of the growth of Cercospora beticola [5] [%] | percent inhibition of the growth of Verticillium dahliae [6] [%] | percent inhibition of the growth of Pythium ultimum [7] [%] | other results |
| --- | --- | --- | --- | --- | --- | --- | --- | --- | --- | --- | --- | --- | --- | --- | --- | --- | --- | --- | --- | --- | --- |
| CC(C)C(=O)O [Isobutyric Acid, reference compound] | No Growth | Growth Observed | Growth Observed | No Growth | 95 | 90 | 100 | 27 | 100 | 86 | 40 | 67 | 90 | – | – | – | – | – | – | – | – |
| CC(C)OC(=O)C(C)C [Isopropyl Isobutyrate] | No Growth | Growth Observed | Growth Observed | No Growth | 95 | 96 | 100 | 20 | −33 | 43 | 30 | 33 | 0 | – | – | – | – | – | – | – | – |
| CCC(=O)O [Propanoic Acid, reference compound] | No Growth | Growth Observed | Growth Observed | No Growth | 95 | 96 | 91 | 53 | 67 | 100 | 60 | 83 | 80 | No | Medium | Yes | No | 66 | 83 | 100 | percent inhibition of the growth of Trichoderma viridae [8]: 45%; percent inhibition of the growth of Phytophthora cinnamomi [9]: 38%; percent inhibition of the growth of Rhizoctonia solani [10]: 81%; percent inhibition of the growth of Fusarium solani [14]: 17%; percent inhibition of the growth of Aspergillus flavus [15]: 52%; percent inhibition of the growth of Sclerotinia sclerotiorum [11]: 0% |
| CCCOC(=O)C(C)C [Propyl Isobutyrate] | Inhibited | Growth Observed | Growth Observed | Inhibited | 95 | 88 | 98 | 33 | 87 | 97 | 40 | 50 | 50 | – | – | – | – | – | – | – | – |
| Isoamyl Hexonates [reference compound] | – | – | – | – | – | – | – | – | – | – | – | – | – | Yes | Yes | Yes | Yes | 83 | 0 | 28 | percent inhibition of the growth of Trichoderma viridae [8]: 13%; percent inhibition of the growth of Phytophthora cinnamomi [9]: 13%; percent inhibition of the growth of Rhizoctonia solani [10]: 0%; percent inhibition of the growth of Fusarium solani [14]: 83%; percent inhibition of the growth of Aspergillus flavus [15]: 66%; percent inhibition of the growth of Sclerotinia sclerotiorum [11]: 66% |
